Assay results: patent US6525001B1, “Substituted pyrimidine and pyridine herbicides” (Mid-American Commercialization Corporation, priority 1997, dated 2003)

Assays:
Assay type in all cases: in vivo
[1] = test system: ladysthumb smartweed (Polygonum persicaria); assay: Test C; design: key: 0 was no effect; 100 was complete control
[2] = test system: ivyleaf morningglory (Ipomoea hederacea); assay: Test C; design: key: 0 was no effect; 100 was complete control
[3] = test system: purple nutsedge (Cyperus rotundus); assay: Test C; design: key: 0 was no effect; 100 was complete control
[4] = test system: eastern black nightshade (Solanum ptycanthum); assay: Test C; design: key: 0 was no effect; 100 was complete control
[5] = test system: windgrass (Apera spica-venti); assay: Test D; design: key: 0 is no effect; 100 is complete control; conditions: PREEMERGENCE
[6] = test system: Italian ryegrass (Lolium multiflorum); assay: Test D; conditions: PREEMERGENCE
[7] = test system: downy brome (Bromus tectorum); assay: Test D; conditions: PREEMERGENCE
rape (Brassica napus) = assay: Test D; design: key: 0 is no effect; 100 is complete control; conditions: PREEMERGENCE
[8] = test system: redroot pigweed (Amaranthus retroflexus); assay: Test D; design: key: 0 is no effect; 100 is complete control; conditions: PREEMERGENCE
[9] = test system: Spanishneedles (Bidens bipinnata); assay: Test E pre-/postemergence/post directed; design: key: 0 is no effect; 100 is complete control; conditions: PREEMERGENCE
How it was run: (§1)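 Three application modes in greenhouse pots: preemergence soil spray, postemergence foliar spray at two to four leaves, and post-directed spray to soil and plant base. Ratings of 0–100 injury, assigned visually against untreated controls 13 to 21 days later.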

[10] = test system: pitted morningglory (Ipomoea lacunosa); assay: Test E pre-/postemergence/post directed; design: key: 0 is no effect; 100 is complete control; conditions: PREEMERGENCE
How it was run: as §1

[11] = test system: alexandergrass (Brachiaria plantaginea); assay: Test E pre-/postemergence/post directed; design: key: 0 is no effect; 100 is complete control; conditions: PREEMERGENCE, Rate 250 g/ha
How it was run: as §1

Row | Structure (SMILES) | Plant response rating, Ladysthumb ([1]; PREEMERGENCE, Rate 35 g/ha) | Plant response rating, Ladysthumb ([1]; PREEMERGENCE, Rate 140 g/ha) | Plant response rating, I. morningglory ([2]; PREEMERGENCE, Rate 35 g/ha) | Plant response rating, I. morningglory ([2]; PREEMERGENCE, Rate 70 g/ha) | Plant response rating, I. morningglory ([2]; PREEMERGENCE, Rate 140 g/ha) | Plant response rating, Purple nutsedge ([3]; PREEMERGENCE, Rate 35 g/ha) | Plant response rating, Purple nutsedge ([3]; PREEMERGENCE, Rate 70 g/ha) | Plant response rating, Purple nutsedge ([3]; PREEMERGENCE, Rate 140 g/ha) | Plant response rating, E. blacknightsh ([4]; PREEMERGENCE, Rate 35 g/ha) | Plant response rating, E. blacknightsh ([4]; PREEMERGENCE, Rate 70 g/ha) | Plant response rating, E. blacknightsh ([4]; PREEMERGENCE, Rate 140 g/ha) | Plant response rating, Ladysthumb ([1]; PREEMERGENCE, Rate 70 g/ha) | Plant response rating, Windgrass ([5]; Rate 31 g/ha) | Plant response rating, Windgrass ([5]; Rate 62 g/ha) | Plant response rating, I. Ryegrass ([6]; Rate 31 g/ha) | Plant response rating, I. Ryegrass ([6]; Rate 62 g/ha) | Plant response rating, Downy brome ([7]; Rate 31 g/ha) | Plant response rating, Downy brome ([7]; Rate 62 g/ha) | Plant response rating, Rape (rape (Brassica napus); Rate 62 g/ha) | Plant response rating, Redroot pigweed ([8]; Rate 62 g/ha) | also measured
1 | Cc1cnc(-c2ccc(C(F)(F)F)cc2)nc1C(Cl)c1cccc(C(F)(F)F)c1 (racemic) [Compound 21] | 0 | 5 | 0 | 0 | 0 | 0 | 0 | 0 | 40 | 80 | 85 |  |  |  |  |  |  |  |  |  | 
2 | Cc1cnc(-n2cnc(C(F)(F)F)n2)nc1Cc1cccc(C(F)(F)F)c1 [Compound 43] |  |  | 20 | 100 | 100 | 0 | 0 | 0 | 100 | 100 | 100 |  |  |  |  |  |  |  |  |  | 
3 | CCc1cnc(-n2ccc(C(F)(F)F)n2)nc1Cc1cccc(C(F)(F)F)c1 [Compound 46] | 25 | 50 | 45 | 50 | 50 |  |  |  | 80 | 100 | 100 | 10 | 40 | 100 | 60 | 60 | 70 | 70 | 100 | 70 | Plant response rating, Rape (rape (Brassica napus); Rate 31 g/ha): 50; Plant response rating, Redroot pigweed ([8]; Rate 31 g/ha): 70
4 | COc1cnc(-c2ccc(C(F)(F)F)cc2)nc1Cc1cccc(C(F)(F)F)c1 [Compound 23] | 5 | 80 | 5 |  | 40 | 0 | 0 | 0 | 95 | 100 | 100 | 80 |  |  |  |  |  |  |  |  | Plant response rating, Spanishneedles ([9]; Rate 125 g/ha): 100; Plant response rating, Spanishneedles ([9]; Rate 250 g/ha): 100
5 | CCc1cnc(-c2ccc(C(F)(F)F)cc2)nc1Cc1cccc(C(F)(F)F)c1 [Compound 22] |  |  |  |  |  |  |  |  |  |  |  |  |  | 20 |  |  |  |  | 20 | 60 | Plant response rating, Windgrass ([5]; Rate 125 g/ha): 70; Plant response rating, Windgrass ([5]; Rate 250 g/ha): 30; Plant response rating, I. Ryegrass ([6]; Rate 125 g/ha): 65; Plant response rating, I. Ryegrass ([6]; Rate 250 g/ha): 75; Plant response rating, Downy brome ([7]; Rate 250 g/ha): 10; Plant response rating, Rape (rape (Brassica napus); Rate 125 g/ha): 100; Plant response rating, Rape (rape (Brassica napus); Rate 250 g/ha): 50; Plant response rating, Redroot pigweed ([8]; Rate 125 g/ha): 100; Plant response rating, Redroot pigweed ([8]; Rate 250 g/ha): 70
6 | Cc1cnc(-n2ccc(C(F)(F)F)n2)nc1Cc1cccc(OC(F)(F)F)c1 [Compound 42] | 90 | 95 | 30 | 70 | 100 | 0 | 0 | 0 | 90 | 95 | 95 | 85 |  |  |  |  |  |  |  |  | Plant response rating, Spanishneedles ([9]; Rate 125 g/ha): 100
7 | Cc1cnc(-n2cnc(C(F)(F)F)n2)nc1Cn1ccc(C(F)(F)F)n1 [Compound 51] |  |  |  |  |  |  |  |  |  |  |  |  | 100 | 100 | 60 | 90 | 80 | 80 | 100 | 70 | Plant response rating, Rape (rape (Brassica napus); Rate 31 g/ha): 100; Plant response rating, Redroot pigweed ([8]; Rate 31 g/ha): 70
8 | Cc1cnc(-n2ccc(C(F)(F)F)n2)nc1Cn1ccc(C(F)(F)F)n1 [Compound 52] |  |  | 5 | 100 | 100 | 0 | 5 | 10 | 40 | 80 | 100 |  | 80 | 100 | 30 | 70 | 30 | 40 | 60 | 90 | Plant response rating, Windgrass ([5]; Rate 125 g/ha): 100; Plant response rating, I. Ryegrass ([6]; Rate 125 g/ha): 70; Plant response rating, Downy brome ([7]; Rate 125 g/ha): 50; Plant response rating, Rape (rape (Brassica napus); Rate 31 g/ha): 50; Plant response rating, Rape (rape (Brassica napus); Rate 125 g/ha): 100; Plant response rating, Redroot pigweed ([8]; Rate 31 g/ha): 90; Plant response rating, Redroot pigweed ([8]; Rate 125 g/ha): 100; Plant response rating, P. morninglory ([10]; Rate 64 g/ha): 100; Plant response rating, P. morninglory ([10]; Rate 125 g/ha): 100
9 | Cc1cnc(-n2ccc(C(F)(F)F)n2)nc1C(=O)c1cccc(OC(F)(F)F)c1 [Compound 66] | 0 | 70 | 5 | 10 | 10 | 0 | 0 | 0 | 0 | 10 | 30 |  |  |  |  |  |  |  |  |  | 
10 | Cc1cnc(-c2ccc(C(F)(F)F)cc2)nc1Cn1ccc(C(F)(F)F)n1 [compound 9] | 35 | 90 | 20 | 50 | 50 | 0 | 0 | 0 | 95 | 100 | 95 | 85 |  |  |  |  |  |  |  |  | Plant response rating, Ladysthumb ([1]; POSTEMERGENCE, Rate 35 g/ha): 20; Plant response rating, Ladysthumb ([1]; POSTEMERGENCE, Rate 70 g/ha): 30; Plant response rating, Ladysthumb ([1]; POSTEMERGENCE, Rate 140 g/ha): 30; Plant response rating, I. morningglory ([2]; POSTEMERGENCE, Rate 35 g/ha): 50; Plant response rating, I. morningglory ([2]; POSTEMERGENCE, Rate 70 g/ha): 60; Plant response rating, I. morningglory ([2]; POSTEMERGENCE, Rate 140 g/ha): 100; Plant response rating, Purple nutsedge ([3]; POSTEMERGENCE, Rate 35 g/ha): 5; Plant response rating, Purple nutsedge ([3]; POSTEMERGENCE, Rate 70 g/ha): 5; Plant response rating, Purple nutsedge ([3]; POSTEMERGENCE, Rate 140 g/ha): 5; Plant response rating, E. blacknightsh ([4]; POSTEMERGENCE, Rate 35 g/ha): 100; Plant response rating, E. blacknightsh ([4]; POSTEMERGENCE, Rate 140 g/ha): 100; Plant response rating, P. morninglory ([10]; Rate 250 g/ha): 100; Plant response rating, Alexandergrass [11]: 100
